Measurements from patent publication US20240316023A1, “BENEDIN, PIPERIDINE, 2-BENZHYDRYL-3-HYDROXY-N-METHYL-, HYDROCHLORIDE AND DERIVATIVES THEREOF FOR USE IN TREATING KLEINE-LEVIN SYNDROME” (priority 2021, published 2024).

Experiments:
[1] = target: T1, M1 (h) (antagonist radioligand) (Homo sapiens, UniProt P11229); experiment: Radioligand binding panel (Eurofins/CEREP), M1; conditions: 10^−5 M; % inhibition of control specific binding; read-out: % Inhibition at 10^−5M Benedin
T1 construct: CEREP (Eurofins, France), contract panel
T1 sequence (P11229 1-460): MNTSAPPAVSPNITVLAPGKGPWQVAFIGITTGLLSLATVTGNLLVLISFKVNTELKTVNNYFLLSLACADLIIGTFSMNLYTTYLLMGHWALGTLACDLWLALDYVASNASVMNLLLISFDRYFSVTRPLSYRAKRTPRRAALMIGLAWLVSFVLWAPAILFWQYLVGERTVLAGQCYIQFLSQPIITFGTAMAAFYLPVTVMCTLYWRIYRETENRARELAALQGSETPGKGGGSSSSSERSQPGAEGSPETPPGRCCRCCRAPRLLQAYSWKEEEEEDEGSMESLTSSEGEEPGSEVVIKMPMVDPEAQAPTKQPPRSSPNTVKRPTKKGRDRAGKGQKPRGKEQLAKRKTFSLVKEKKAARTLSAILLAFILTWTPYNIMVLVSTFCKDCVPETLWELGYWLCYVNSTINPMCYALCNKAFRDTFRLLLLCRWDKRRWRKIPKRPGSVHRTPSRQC
Experimental: (§1) Benedin was tested at 10^−5 M, calculated as a % inhibition of control specific binding of a radioactively labeled ligand specific for each target.
(§2) This binding profile panel was broadly defined with roughly an equal number of selective, central and peripheral therapeutically relevant targets, including native animal tissues, radioligands and specific enzymes involved in cell cycle regulation in accordance with Eurofins Standard Operating Procedure.
(§3) For radioligand binding experiments, the half maximal inhibitory concentration (IC50) and the half maximal effective concentration (EC50) values were determined (via computer software) by nonlinear regression analysis of the competition curves using Hill equation curve fitting. The inhibition constants (Ki) were calculated using the Cheng-Prusoff equation (Ki=IC50/(1+(L/KD)), where L is the concentration of radioligand in the assay, and KD is the affinity of the radioligand for the receptor.^60
(§4) The results are expressed as a % control specific binding ([measured specific binding/control specific binding]×100) and as a % inhibition of control specific binding (100−[(measured specific binding/control specific binding)×100] obtained in the presence of the test compounds. […]

[2] = target: T2, M2 (h) (antagonist radioligand) (Homo sapiens, UniProt P08172); experiment: Radioligand binding panel (Eurofins/CEREP), M2; conditions: 10^−5 M; % inhibition of control specific binding; read-out: % Inhibition at 10^−5M Benedin
T2 construct: CEREP (Eurofins, France), contract panel
T2 sequence (P08172 1-466): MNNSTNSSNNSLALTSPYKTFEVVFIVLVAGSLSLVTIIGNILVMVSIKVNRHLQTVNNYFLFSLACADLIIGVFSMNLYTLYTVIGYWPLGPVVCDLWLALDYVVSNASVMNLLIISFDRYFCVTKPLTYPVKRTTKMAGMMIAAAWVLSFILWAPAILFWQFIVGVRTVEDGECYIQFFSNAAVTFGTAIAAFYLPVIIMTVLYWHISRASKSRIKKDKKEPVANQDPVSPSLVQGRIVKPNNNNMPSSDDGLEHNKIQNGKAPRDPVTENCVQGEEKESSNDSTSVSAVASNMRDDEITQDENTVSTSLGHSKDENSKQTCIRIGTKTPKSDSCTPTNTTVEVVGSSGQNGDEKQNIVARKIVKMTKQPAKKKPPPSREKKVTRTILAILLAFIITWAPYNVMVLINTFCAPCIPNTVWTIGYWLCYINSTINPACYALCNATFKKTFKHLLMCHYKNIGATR
Experimental: as §1, §2, §3, §4

CN1CCCC(O)C1C(c1ccccc1)c1ccccc1 (centres unmarked) [Benedin, 2-benzhydryl-3-hydroxy-N-methyl-piperidine]
inhibition at 10 µM [1]: 75%
inhibition at 10 µM [2]: 65%
